Measurements taken from the NIST ThermoML archive (doi:10.1016/j.jct.2006.11.003).
± gives the expanded uncertainty stated by the source.

Test: xn = mol fraction of the nth substance listed
Settings: 101 kPa, Liquid

Cc1cccc(C)c1 [1,3-dimethylbenzene] + CN1CCCC1=O
Settings | mass density [kg/m3]
293.15 K, x1 = 0.0451 | 1024.18 ± 0.46
293.15 K, x1 = 0.1145 | 1011.33 ± 0.43
293.15 K, x1 = 0.1874 | 998.07 ± 0.43
293.15 K, x1 = 0.2451 | 987.76 ± 0.5
293.15 K, x1 = 0.3258 | 973.58 ± 0.61
293.15 K, x1 = 0.3987 | 961 ± 0.71
293.15 K, x1 = 0.4657 | 949.63 ± 0.8
293.15 K, x1 = 0.5214 | 940.31 ± 0.88
293.15 K, x1 = 0.5985 | 927.59 ± 1
293.15 K, x1 = 0.6584 | 917.85 ± 1.1
293.15 K, x1 = 0.7214 | 907.73 ± 1.2
293.15 K, x1 = 0.7987 | 895.48 ± 1.3
293.15 K, x1 = 0.8547 | 886.71 ± 1.4
293.15 K, x1 = 0.9048 | 878.92 ± 1.5
293.15 K, x1 = 0.9597 | 870.47 ± 1.6
293.15 K, x1 = 1 | 864.31 ± 1.6
303.15 K, x1 = 0.0541 | 1013.3 ± 0.42
303.15 K, x1 = 0.1134 | 1002.37 ± 0.39
303.15 K, x1 = 0.1954 | 987.52 ± 0.47
303.15 K, x1 = 0.2562 | 976.72 ± 0.55
303.15 K, x1 = 0.3214 | 965.31 ± 0.63
303.15 K, x1 = 0.3895 | 953.58 ± 0.73
303.15 K, x1 = 0.4487 | 943.53 ± 0.81
303.15 K, x1 = 0.5014 | 934.7 ± 0.89
303.15 K, x1 = 0.5782 | 922.02 ± 1
303.15 K, x1 = 0.6484 | 910.6 ± 1.1
303.15 K, x1 = 0.7154 | 899.86 ± 1.2
303.15 K, x1 = 0.7654 | 891.93 ± 1.3
303.15 K, x1 = 0.8241 | 882.72 ± 1.4
303.15 K, x1 = 0.8815 | 873.79 ± 1.5
303.15 K, x1 = 0.9465 | 863.8 ± 1.6
303.15 K, x1 = 1 | 855.64 ± 1.7
313.15 K, x1 = 0.0487 | 1005.18 ± 0.38
313.15 K, x1 = 0.1151 | 992.96 ± 0.41
313.15 K, x1 = 0.1745 | 982.21 ± 0.48
313.15 K, x1 = 0.2495 | 968.86 ± 0.57
313.15 K, x1 = 0.3147 | 957.46 ± 0.66
313.15 K, x1 = 0.3851 | 945.34 ± 0.75
313.15 K, x1 = 0.4587 | 932.89 ± 0.85
313.15 K, x1 = 0.5185 | 922.93 ± 0.94
313.15 K, x1 = 0.6214 | 906.08 ± 1.1
313.15 K, x1 = 0.6785 | 896.89 ± 1.2
313.15 K, x1 = 0.7484 | 885.77 ± 1.3
313.15 K, x1 = 0.7945 | 878.53 ± 1.4
313.15 K, x1 = 0.8521 | 869.55 ± 1.4
313.15 K, x1 = 0.9021 | 861.83 ± 1.5
313.15 K, x1 = 0.9548 | 853.77 ± 1.6
313.15 K, x1 = 1 | 846.9 ± 1.7
323.15 K, x1 = 0.0548 | 995.37 ± 0.38
323.15 K, x1 = 0.1154 | 984.22 ± 0.45
323.15 K, x1 = 0.1754 | 973.34 ± 0.52
323.15 K, x1 = 0.2354 | 962.63 ± 0.59
323.15 K, x1 = 0.2965 | 951.89 ± 0.67
323.15 K, x1 = 0.3551 | 941.73 ± 0.74
323.15 K, x1 = 0.4158 | 931.36 ± 0.83
323.15 K, x1 = 0.4814 | 920.31 ± 0.92
323.15 K, x1 = 0.5385 | 910.84 ± 1
323.15 K, x1 = 0.5821 | 903.68 ± 1.1
323.15 K, x1 = 0.6514 | 892.44 ± 1.2
323.15 K, x1 = 0.7085 | 883.3 ± 1.2
323.15 K, x1 = 0.7765 | 872.54 ± 1.4
323.15 K, x1 = 0.8512 | 860.88 ± 1.5
323.15 K, x1 = 0.9374 | 847.61 ± 1.6
323.15 K, x1 = 1 | 838.09 ± 1.7
333.15 K, x1 = 0.0451 | 987.86 ± 0.41
333.15 K, x1 = 0.1102 | 975.88 ± 0.48
333.15 K, x1 = 0.1985 | 959.95 ± 0.58
333.15 K, x1 = 0.2511 | 950.64 ± 0.64
333.15 K, x1 = 0.3201 | 938.59 ± 0.73
333.15 K, x1 = 0.3952 | 925.71 ± 0.83
333.15 K, x1 = 0.4625 | 914.36 ± 0.92
333.15 K, x1 = 0.5214 | 904.57 ± 1
333.15 K, x1 = 0.5985 | 891.95 ± 1.1
333.15 K, x1 = 0.6584 | 882.28 ± 1.2
333.15 K, x1 = 0.7121 | 873.71 ± 1.3
333.15 K, x1 = 0.7741 | 863.94 ± 1.4
333.15 K, x1 = 0.8351 | 854.42 ± 1.5
333.15 K, x1 = 0.8812 | 847.31 ± 1.5
333.15 K, x1 = 0.9487 | 836.99 ± 1.6
333.15 K, x1 = 1 | 829.22 ± 1.7
343.15 K, x1 = 0.0547 | 977.18 ± 0.45
343.15 K, x1 = 0.1241 | 964.43 ± 0.53
343.15 K, x1 = 0.1887 | 952.77 ± 0.6
343.15 K, x1 = 0.2654 | 939.18 ± 0.7
343.15 K, x1 = 0.3214 | 929.42 ± 0.77
343.15 K, x1 = 0.3985 | 916.19 ± 0.87
343.15 K, x1 = 0.4658 | 904.84 ± 0.96
343.15 K, x1 = 0.5214 | 895.6 ± 1
343.15 K, x1 = 0.5985 | 882.97 ± 1.1
343.15 K, x1 = 0.6541 | 874 ± 1.2
343.15 K, x1 = 0.7014 | 866.44 ± 1.3
343.15 K, x1 = 0.7654 | 856.33 ± 1.4
343.15 K, x1 = 0.8354 | 845.41 ± 1.5
343.15 K, x1 = 0.8924 | 836.63 ± 1.6
343.15 K, x1 = 0.9469 | 828.32 ± 1.7
343.15 K, x1 = 1 | 820.29 ± 1.8
353.15 K, x1 = 0.0544 | 968.44 ± 0.49
353.15 K, x1 = 0.1214 | 956.1 ± 0.56
353.15 K, x1 = 0.1958 | 942.64 ± 0.65
353.15 K, x1 = 0.2562 | 931.9 ± 0.72
353.15 K, x1 = 0.3214 | 920.5 ± 0.8
353.15 K, x1 = 0.3985 | 907.25 ± 0.9
353.15 K, x1 = 0.4515 | 898.28 ± 0.97
353.15 K, x1 = 0.5114 | 888.28 ± 1.1
353.15 K, x1 = 0.5941 | 874.69 ± 1.2
353.15 K, x1 = 0.6621 | 863.71 ± 1.3
353.15 K, x1 = 0.7214 | 854.26 ± 1.4
353.15 K, x1 = 0.7852 | 844.22 ± 1.4
353.15 K, x1 = 0.8471 | 834.59 ± 1.5
353.15 K, x1 = 0.8915 | 827.76 ± 1.6
353.15 K, x1 = 0.9565 | 817.85 ± 1.7
353.15 K, x1 = 1 | 811.29 ± 1.8
